According to patent US12416008B2, “Compositions and methods of use for small-molecule regulation of CRISPR-Cas9 activity using RNA aptamers” (priority 2019, dated 2025):

Test system: galK 1 site
Assay: red/white colony screen of editing efficiency at the galK 1 site (CREATE recombineering)
Format: cell-based, E. coli MG1655
Conditions: for Editing Efficiency 1 mM Theo: induced for 3 hours with 1 mM theophylline; for Editing Efficiency no Theo: no theophylline, 3 hours recovery
Protocol: Candidates from this enriched library were analyzed to inform an improved library design. After three selection/counterselection steps, cells were plated on M63 selection medium^20 and 150 colonies were picked. Each isolated candidate was then transformed into unedited E. coli to screen for theophylline-responsive constructs using a red/white colony assay to quantify the percentage of edited bacteria. Colonies with an unedited galK site appear red whereas edited colonies appear white (FIG. 5). The percentage of white colonies is considered the editing efficiency. Gene editing was induced as previously described with or without adding theophylline and the editing efficiencies were compared.
The protocol established by Garst et al was mainly followed. LB containing kanamycin and chloramphenicol was inoculated with MGλ9 cells and grown overnight at 30° C. The stationary culture was diluted 100 fold in LB, containing chloramphenicol, kanamycin and 0.2% arabinose and grown to an OD600=0.4-0.6 in 25 mL LB. The culture was heat-shocked in a shaking waterbath at 42° C. for 15 minutes to induce expression of the lambda-red proteins from pSIM5. Then, the culture was washed in two volumes of ice-cold deionized water, resuspended in 500 μl deionized water and 50 μl of the cell suspension was electroporated with 200 ng of a CREATE plasmid that encodes gRNA and homology template. The transformants were recovered in 4 mL of LB, containing 0.2% arabinose and optionally 1 mM theophylline or 1 μM anhydrotetracycline (ATC), and shaken at 37° C. for 3 hours before plating on MacConkey Agar. To estimate the number of cfu, aliquots were plated on LB agar 1 hour after transformation.
In order to assess the frequency of gene editing, a red/white screen was used to visualize the introduction of a stop codon into the galK gene by CREATE. The original CREATE protocol was used for inducing gene editing and after 3 hours of recovery (with or without the agRNA ligand) a series of dilutions of the cultures were plated on MacConkey Agar plates containing 1% galactose. Bacterial colonies with a mutated galK* site appear white on the plates, whereas non-edited colonies appear red. The editing efficiency could be calculated by dividing the number of edited colonies over the total number of colonies. By comparing the editing efficiency in presence versus absence of the ligand, a dynamic range of the in vivo activity could be determined.
When screening the enriched libraries for switchable constructs, the transformants were recovered in 4 mL of LB broth, a dilution series was plated for every construct and the experiment was only carried out once due to the large volume of colonies screened (˜250 in total). When the constructs A9 and GU19 were characterized in detail, triplica of the experiment were carried out.

Substance | gene editing activity and ligand dependence (in words) (with and without aptamer ligand) | Editing Efficiency 1 mM Theo [%] | Editing Efficiency no Theo [%]
3-methylxanthine aptamer: theophylline aptamer domain with C22A point mutation at the ligand-binding site; SEQ ID NO: 96 (AUACCAGCUUCGAAAGAAGCCAUUGGCAG; listed as RNA, chemistry not fully specified) | not activatable by theophylline | – | –
A8: agRNA cassette CGGGGGACAATAGG, SEQ ID NO: 12 (expressed or natural sequence) | – | 82 | 2
A10: agRNA cassette GATGGGCCTCCACC, SEQ ID NO: 9 (expressed or natural sequence) | – | 14 | 0
A14: agRNA cassette GGAGGTACGGTGCC, SEQ ID NO: 10 (expressed or natural sequence) | – | 87 | 2
A26: agRNA cassette GGGGGGCCACGCGC, SEQ ID NO: 13 (expressed or natural sequence) | – | 89 | 5
A34: agRNA cassette TAGTTTAAACCGTT, SEQ ID NO: 7 (expressed or natural sequence) | – | 57 | 12
AU1: agRNA cassette AGGGGGCCTATAAT, SEQ ID NO: 15 (expressed or natural sequence) | – | 2 | 0
AU2: agRNA cassette ACCAGGCCAAGTAT, SEQ ID NO: 16 (expressed or natural sequence) | – | 4 | 0
AU3: agRNA cassette ACAAGGCCCATAAT, SEQ ID NO: 17 (expressed or natural sequence) | – | 72 | 1
AU4: agRNA cassette AACAGGCCTTAATT, SEQ ID NO: 18 (expressed or natural sequence) | – | 0 | 0
AU5: agRNA cassette ACTCGGCCTGAACT, SEQ ID NO: 19 (chemistry not given here) | – | 43 | 0
AU6: agRNA cassette AAGGGGCCTATAAT, SEQ ID NO: 20 (expressed or natural sequence) | – | 77 | 5
AU7: agRNA cassette AGTAGGCCTTTCAT, SEQ ID NO: 21 (expressed or natural sequence) | – | 58 | 0
AU8: agRNA cassette ACGGGGCCTAATAT, SEQ ID NO: 22 (expressed or natural sequence) | – | 48 | 0.3
AU9: agRNA cassette AAACGGCCCACTGT, SEQ ID NO: 23 (expressed or natural sequence) | – | 22 | 1
AU10: agRNA cassette ATAGGGCCATCCAT, SEQ ID NO: 24 (expressed or natural sequence) | – | 13 | 0
AU11: agRNA cassette AATAGGCCACTTAT, SEQ ID NO: 25 (expressed or natural sequence) | – | 25 | 0
AU12: agRNA cassette AGAGGGCCGGGCGT, SEQ ID NO: 26 (expressed or natural sequence) | – | 26 | 0
AU14: agRNA cassette AGTGGGCCAGCCTT, SEQ ID NO: 27 (expressed or natural sequence) | – | 17 | 0
AU15: agRNA cassette ACCCGGCCATTCAT, SEQ ID NO: 28 (expressed or natural sequence) | – | 5 | 0
AU16: agRNA cassette AACCGGCCCCGAGT, SEQ ID NO: 29 (expressed or natural sequence) | – | 6 | 0
AU17: agRNA cassette AAAGGGCCAGGCAT, SEQ ID NO: 30 (expressed or natural sequence) | – | 4 | 0

Substance | gene editing activity and ligand dependence (in words) (with and without aptamer ligand) | Editing Efficiency 1 mM Theo [%] | Editing Efficiency no Theo [%]
AU18: agRNA cassette AATAGGCCCAGACT, SEQ ID NO: 31 (expressed or natural sequence) | – | 7 | 0
AU19: agRNA cassette AATAGGCCCGCAGT, SEQ ID NO: 32 (expressed or natural sequence) | – | 10 | 0
AU20: agRNA cassette AAATGGCCGGCAAT, SEQ ID NO: 33 (expressed or natural sequence) | – | 0 | 0
C2A2: agRNA cassette TAGTGGCTACCATG, SEQ ID NO: 14 (expressed or natural sequence) | – | 84 | 5
G1B1: agRNA, 2×4 IL and upper stem cassette GTATCGCTTAAGCC, SEQ ID NO: 2 (expressed or natural sequence) | – | 59 | 1
GC1: agRNA cassette GCTGGGCCCTTCCC, SEQ ID NO: 52 (expressed or natural sequence) | – | 0 | 0
GC2: agRNA cassette GTCAGGCCTATACC, SEQ ID NO: 53 (expressed or natural sequence) | – | 0 | 0
GC3: agRNA cassette GTCCGGCCCCACAC, SEQ ID NO: 54 (expressed or natural sequence) | – | 12 | 0
GC4: agRNA cassette GGTCGGCCAGTAGC, SEQ ID NO: 55 (expressed or natural sequence) | – | 1 | 0
GC5: agRNA cassette GTTGGGCCGCGGAC, SEQ ID NO: 56 (expressed or natural sequence) | – | 0 | 0
GC6: agRNA cassette GATTGGCCAGCAAC, SEQ ID NO: 57 (expressed or natural sequence) | – | 40 | 1
GC7: agRNA cassette GGGGGGCCGAATAC, SEQ ID NO: 58 (expressed or natural sequence) | – | 71 | 1
GC8: agRNA cassette GGACGGCCCTGTGC, SEQ ID NO: 59 (expressed or natural sequence) | – | 0 | 1
GC9: agRNA cassette GCAGGGCCTCTAAC, SEQ ID NO: 60 (expressed or natural sequence) | – | 0 | 0
GC10: agRNA cassette GAGCGGCCACAACC, SEQ ID NO: 61 (expressed or natural sequence) | – | 0 | 0
GC11: agRNA cassette GCGTGGCCCTTCCC, SEQ ID NO: 62 (chemistry not given here) | – | 3 | 0
GC12: agRNA cassette GATAGGCCAGTTAC, SEQ ID NO: 63 (expressed or natural sequence) | – | 36 | 1
GC13: agRNA cassette GGAAGGCCTTATAC, SEQ ID NO: 64 (expressed or natural sequence) | – | 64 | 0
GC15: agRNA cassette GCATGGCCTACTCC, SEQ ID NO: 65 (expressed or natural sequence) | – | 21 | 1
GC16: agRNA cassette GATAGGCCAACACC, SEQ ID NO: 66 (expressed or natural sequence) | – | 65 | 1
GC17: agRNA cassette GACCGGCCCCCCGC, SEQ ID NO: 67 (expressed or natural sequence) | – | 2 | 0
